Assay results taken from patent US20230339977A1, “SUBSTITUTED HETEROARYL COMPOUND, AND COMPOSITION AND APPLICATION THEREOF” (SUNSHINE LAKE PHARMA CO., LTD., priority 2020, published 2023).

Legend:
[1] = Stability in human liver microsomes; format: in vitro ADME
Experimental: (§1) The stability of the compounds of the present invention in human and rat liver microsomes can be tested by the following two methods:
(§2) Human or rat liver microsomes were incubated in polypropylene tubes in duplicate wells. A typical incubation mixture included human or rat liver microsomes (0.5 mg protein/mL), target compound (5 µM), and a total volume of 200 µL of NADPH (1.0 mM) potassium phosphate buffer (PBS, 100 mM, pH 7.4), the compound was dissolved in DMSO and diluted with PBS, the final concentration of the DMSO solution was 0.05%. Human or rat liver microsomes were incubated at 37° C. in an air-connected water bath. After pre-incubation for 3 minutes, […] was added to start the reaction. The same volume of ice-cold acetonitrile was added to terminate the reaction at different time points (0, 5, 10, 15, 30 and 60 min). Samples were stored at -80° C. until LC/MS/MS analysis.
(§3) The linear concentration range of each target compound was determined, and then, the concentration of the target compounds in the human or rat liver microsomes incubation mixture was determined by LC/MS/MS method.
(§4) Parallel incubations were performed using denatured microsomes as a negative control and dextromethorphan (70 µM) as a positive control. Negative control was incubated at 37° C., the reaction was terminated at different time points (0, 15 and 60 minutes); positive control was incubated at 37° C., the reaction was terminated at different time points (0, 5, 10, 15, 30 and 60 minutes). Positive and negative control samples were used in each assay to ensure the integrity of the microsomal incubation system.
(§5) In addition, the stability data of the compounds of the present invention in human or rat liver microsomes can also be obtained from the following tests:
(§6) Human or rat liver microsomes were incubated in polypropylene tubes in duplicate wells. A typical incubation mixture included human or rat liver microsomes (final concentration: 0.5 mg protein/mL), target compound (final concentration: 1.5 µM) and a total volume of 30 µL of K-buffer solution (containing 1.0 mM EDTA, 100 mM, pH 7.4). Compounds were dissolved in DMSO and diluted with K-buffer solution, the final concentration of DMSO was 0.2%. […]
(§7) For each reaction, in vivo intrinsic hepatic clearance CLint is extrapolated by plotting the compound concentration (expressed as a percentage) in human or rat liver microsomal incubations as a percentage relative to time zero (ref.: Naritomi Y, Terashita S, Kimura S, Suzuki A, Kagayama A, Sugiyama Y. Prediction of human hepatic clearance from in vivo animal experiments and in vitro metabolic studies with liver microsomes from animals and humans. Drug Metabolism and Disposition 2001, 29: 1316-1324.).

[2] = Stability in rat liver microsomes; format: in vitro ADME
Experimental: as §1, §2, §3, §4, §5, §6, §7

P-STAT3 = experiment: Effect of TYK2 inhibitor on P-STAT3 expression in PBMC induced by IFN-α (Table 3, P-STAT3 (h)); format: cell-based; conditions: Homo sapiens; P-STAT3 by ELISA, PBMC stimulated with IFN-α 5000 U/mL
Experimental: Whole blood was collected from healthy subjects, anticoagulated with heparin sodium, and PBMC (human peripheral blood mononuclear cells) were extracted. PBMC were seeded in 96-well culture plates at a density of 1*106/well. The initial concentration of the positive drug BMS986165 was 1000 nM, after diluting 10 times, the positive drug BMS986165 was diluted 8 concentrations by 3 times; the concentration of the other tested compounds was 333 nM. Positive wells and negative wells were added with the same volume of DMSO as the compound, and the final concentration of DMSO was 0.5%. After the compound was added, the cells were incubated at 37° C. for 1 h, and then stimulated by the addition of IFN-α at a final concentration of 5000 U/mL. An equal volume of medium was added to the negative wells and incubated for 15 min. The cells were centrifuged to remove the supernatant, and lysed, and the P-STAT3 was measured according to the instructions of the ELISA kit, the absorbance was read at 450 nm, and the IC50 value or inhibition rate was calculated.
CTLL-2, P-STAT3 and TF-1 cells were seeded in a 96-well culture plate at a density of 20,000/well with 90 µL per well, and the blank well was an equal amount of complete medium. […]

CTLL-2 cells = experiment: Inhibitory effect on CTLL-2 cell proliferation; format: cell-based; conditions: alamar blue, read-out: IC50 (nM) CTLL-2 (h)
Experimental: CTLL-2, P-STAT3 and TF-1 cells were seeded in a 96-well culture plate at a density of 20,000/well with 90 µL per well, and the blank well was an equal amount of complete medium. 10 ul of different compound dilutions were added to each plate row BC, DE, and FG, and 5% DMSO medium with equal volume of the compound was added to positive wells and negative wells, and the final concentration of DMSO was 0.5%. After incubating in a 37° C. incubator for 20 h, alamar blue was added, the plate was incubated for 4 h, the fluorescence intensity of each well under the conditions of […], 580 nm wavelength was measured, and the IC50 value was calculated.

TF-1 cells = experiment: Inhibitory effect on TF-1 cell proliferation; format: cell-based; conditions: Homo sapiens, alamar blue, read-out: IC50 (nM) TF-1 (h)
Experimental: TF-1 cells were seeded in a 96-well culture plate at a density of 20,000/well with 80 µL per well, the blank well was an equal amount of complete medium, and 10 µL of the compound dilution solution was added to the 96-well plate B1-11, C1-11, E1-11, F1-11, positive and negative wells were added with 5% DMSO medium equal to the volume of the compound, and the final concentration of DMSO was 0.5%. After 30 min, GM-CSF with a final concentration of 2 ng/mL was added to rows B, C, and D (positive wells), and the remaining wells (rows E, F, and G) were added with the same volume of medium as cytokines (negative wells). After incubation for 44 h at 37° C. in 5% CO2, alamar blue was added, the plate was incubated for 4 h, the fluorescence intensity of each well under the conditions of […], 580 nm wavelength was measured, and the IC50 value was calculated.
CTLL-2, P-STAT3 and TF-1 cells were seeded in a 96-well culture plate at a density of 20,000/well with 90 µL per well, and the blank well was an equal amount of complete medium. 10 ul of different compound dilutions were added to each plate row BC, DE, and FG, and 5% DMSO medium with equal volume of the compound was added to positive wells and negative wells, and the final concentration of DMSO was 0.5%. […]

[3] = pH 7.4, in vivo intrinsic hepatic clearance extrapolated

half-life ([1]; human, pH 7.4, read-out: Human T½): 0.804 h
CLint scaled [1, 3]: 36 mL/min/kg
CLint scaled [2, 3]: 15.4 mL/min/kg
half-life ([2]; rat, pH 7.4, read-out: Rat T½): 2.69 h
IC50 (P-STAT3): 95.8 nM
SMILES: CC(=O)Nc1cc2c(-c3ccc4c(n3)C3(CCOC3)OC4)cn(C)c2cn1 (stereo not shown) [Example 2, N-(3-(4,5-Dihydro-2H,5′H-Spiro[Furan-3,7′-Furo[3,4-b]Pyridin]-2′-yl)-1-Methyl-1H-Pyrrolo[2,3-c]Pyridin-5-yl)Acetamide]
IC50 (CTLL-2 cells): > 10000 nM
IC50 (TF-1 cells): 7560 nM
